Peptide text beside a SMILES is read from it. * marks the point of attachment. Cbz = O=C(OCc1ccccc1)*
Test system: neuronal cells
Test: Gigasome-mediated extraction of stress granule-associated protein HuR (fixed plates, confocal)
Format: cell-based, human
Protocol: For this paradigm, cells were treated with a low sodium arsenite concentration of 5 μM either alone or in combination with the proteasome inhibitor MG-132 at 0.2 μM. A vehicular control amount of DMSO was added to the media to comparatively study cargo signals within cells and gigasomes. Treatments were carried out in reduced serum-containing media for 24 hours to mimic a chronic exposure to arsenite. The presence of the stress-granule-related cargo within cells and in gigasomes was characterized and quantified by confocal microscopy analysis of 4% paraformaldehyde. Non-specific labeling was blocked by incubation with 5% normal goat serum in PBS in the presence of 0.1% Triton X-100, for 2 h at room temperature, followed by immunolabeling with an antibody against the RNA-binding protein HuR (see Table 12) and incubation with Alexa Fluor® 568 secondary antibodies. Phalloidin Alexa Fluor® 488 was used to mark the proximal plasma membrane. Nuclei were counterstained with DAPI.
Images were captured using a Zeiss LSM 900 confocal microscope and a 40× objective. For analysis, 10×16-bit images per well were processed to obtain a final total range of 75-200 cells. Composite images were separated in the different channels. The background was subtracted from the red cargo-related channel, as described in Example 13a. The nuclear signal in the blue channel was thresholded using the “Yen” autothreshold algorithm. To measure the nuclear-to-cytosolic translocation of the stress-granule-related protein cargo upon treatment, firstly, the cargo-related nuclear signal was subtracted from the respective red channel image by creating a nuclear selection from the thresholded blue channel image, which was added to ImageJ Manager. The nuclear selection was then transferred to the background-subtracted red channel and the nuclear cargo signal was removed from the image leaving only the cytosolic signal. The cleared red channel image was thresholded using the “default” autothreshold algorithm for downstream particle analysis. To measure the cytosolic cargo signal, a cellular mask was then generated by thresholding the Green/F-actin channel using the “Li” autothreshold method. A cytosolic selection was created, added to ImageJ Manager, and transferred to the background subtracted, nuclear-cleared red channel image. The cytosolic cargo signal (integrated density) was measured and normalized to the number of nuclei counted in each field. Particle analysis was performed as described in Example 13a, using the thresholded green channel to identify particles of interest by filtering by area and circularity and re-directing to the blue and red channel for absence of nuclear signal and eventual presence of disease-related cargo, respectively. The quantity or distribution of objects obtained from the particle analysis was obtained as described in Example 13a.

Q: With CC(C)C[C@@H](C=O)NC(=O)[C@H](CC(C)C)NC(=O)[C@H](CC(C)C)NC(=O)OCc1ccccc1 [MG-132, reference compound] (Cbz-Leu-Leu-Leu-aldehyde) as the compound, how does the HuR cytosolic signal (5 μM sodium arsenite, 0.2 μM MG-132, alone or combined, 24 h, compared to DMSO (FIG. 7B)) read?
A: The HuR cytosolic signal was “increased”.

Q: And the “HuR+ve particle intensity distribution (gigasome diameter and brightness)” value (FIG. 7E)?
A: The value was “larger in diameter and brighter”.

Q: What about the “HuR average intensity within gigasomes” value (compared to sodium arsenite alone and DMSO (FIG. 7D)) of the same compound?
A: The value was “higher”.
